In patent publication US8633177B2, “Nitroxyl (HNO) releasing compounds and uses thereof in treating diseases” (The United States of America, as represented by the …, priority 2010, dated 2014):

Key:
[1] = NO release measured with NO specific electrode, 2% serum; assay type: physicochemical; conditions: 100 μM; for NO release: 2% serum; for [NO]pA: phosphate buffer pH 7.4, 2% serum
Protocol: The release of NO was evaluated using an NO specific electrode. The NO electrode was stabilized in phosphate buffer pH 7.4 containing 2% serum. Compounds 4 and 8 in DMSO were added and the NO signal was measured. The experiment was repeated in the presence of 1 mM sodium ferricyanide.
Since there is no direct method for detection of HNO, 1 mM ferricyanide solution was used, which converts HNO to NO that can then be detected using NO electrode. K3Fe(CN)6+HNO ? NO

stomach ulcers = assay: Ulcerogenicity (ulcer index) after oral administration; assay type: in vivo, rats; conditions: for Ulcer Index: 6 h after oral administration, equivalent to 250 mg/kg aspirin; for UI (ulcer index): as given in the text
Protocol: Ulcerogenicity was evaluated 6 h after oral administration of 250 mg/kg of aspirin (250 mg/kg) and an equivalent amount of the corresponding test compound. The compounds were suspended in 1.7 mL of a 1% methylcellulose solution and administered. The control rats received oral administration of a vehicle (1.7 mL of 1.0% methylcellulose solution). The rats were euthanized in a CO2 chamber and their stomachs and placed on ice and then the ulcers were studied using magnifying glass.

MB-231 cells = assay: MTT cell survival, MDA-MB-231; assay type: cell-based, human; conditions: MTT assay
Protocol: MDA-MB-231, MCF-7 and MDA-MB-468, human breast carcinoma cell lines and MCF-10A, breast […] (American Type Culture Collection, Manassas, Va.) were grown as monolayers in RPMI 1640 supplemented with 10% FCS (Hyclone), penicillin (50 units/ml), streptomycin ([…]; Life Technologies, Inc., Grand Island, N.Y.) and endothelial growth media (Lonanza) respectively. Cells were seeded at a density of 1×10^6 cells/100-cm^2 culture dish and incubated at 37° C. in 5% CO2 and 80% relative humidity. Single-cell suspensions were obtained by trypsinization (0.05% trypsin/EDTA), and cells were counted using a Beckman cell counter.
1000× stock solutions aspirin, of a DEA/NO-ASA, and IPA/NO-ASA were made in DMSO and final concentration in the media or PBS was adjusted to 0.1% DMSO.
The effect of NONO-aspirin on cell proliferation was studied using an MTT assay. The effect of DEA/NO-ASA, IPA/NO-ASA, aspirin, IPA/NO and DEA/NO was measured using the MTT assay. Cells were plated at a concentration of 8,000-10,000 cells per well in a 96 well plate and grown overnight. Cells were treated with different concentrations of the compounds and controls for 48 h. After 48 h, a solution of 5 mg/ml MTT was added to each well and incubated for 1 h. Then the media was removed from each well and 100 uL DMSO was added to each well and the absorbance was read at 550 nm. […]

[2] = test system: reactive oxygen species (ROS); assay: ROS level with DCF; assay type: cell-based; conditions: 100 μM
Protocol: To investigate the role of ROS in apoptosis, the ROS level was studied in the presence of the compounds in a time dependent manner using 2′,7′-dichlorofluorescein (DCF) in all four cell lines. Cells were plated at a concentration of 30,000 cells per well and grown overnight. Cells were treated with 100 μM DCF (Sigma Aldrich) and incubated for 30 min at 37° C. The cells were then washed five times with PBS pH 7.4 and 100 μM of IPA/NO-aspirin, DEA/NO-aspirin, IPA/NO, DEA/NO and aspirin were added.

p53 = assay: Phosphorylation of p53 in MB-231 cells; assay type: cell-based, human; conditions: 50 μM IPA/NO-aspirin, 75 μM DEA/NO-aspirin
Protocol: MB-231 cells were plated at a concentration on 1E6 and grown for 24 h. Then the cells were serum starved overnight followed by treatment with 50 μM and 75 μM, respectively, of IPA/NO-aspirin and DEA/NO-aspirin for 3, 6, 12 h. The cells were harvested and lysed with lysis buffer (cell signaling). Cell lysate was centrifuged at 13,000 rpm for 20 min and the supernatant was transferred to fresh tube. Protein ([…]) of protein was loaded in each lane on a 15% tris-glycine gel and electrophoresis was completed at 120V.

[3] = biological target: T1, glyceraldehyde-3-phosphate dehydrogenase (GAPDH) (Homo sapiens, UniProt P04406); assay: GAPDH activity, MDA-MB-468; assay type: cell-based; set-up: endogenous in cells; host or cells: MDA-MB-468; conditions: MDA-MB-468, 100 μM
T1 sequence (P04406 whole entry): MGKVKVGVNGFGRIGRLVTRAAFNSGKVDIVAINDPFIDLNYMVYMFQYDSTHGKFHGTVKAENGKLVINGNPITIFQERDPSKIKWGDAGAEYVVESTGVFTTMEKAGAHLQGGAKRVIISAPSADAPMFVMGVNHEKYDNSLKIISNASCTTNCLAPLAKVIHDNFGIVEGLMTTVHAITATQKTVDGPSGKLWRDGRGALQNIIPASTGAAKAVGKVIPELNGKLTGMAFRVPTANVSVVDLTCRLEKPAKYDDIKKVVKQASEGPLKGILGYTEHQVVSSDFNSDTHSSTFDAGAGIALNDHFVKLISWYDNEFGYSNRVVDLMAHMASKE
Protocol: (§1) Cells were plated at a concentration of 30,000 cells per well and grown overnight. Cells were treated with 100 μM IPA/NO-aspirin and DEA/NO-aspirin for 1, 3, and 6 h after which 200 μL of KDalert lysis buffer was added to each well. The plate was incubated at 4° C. for 20 min to lyse the cells. 10 μL of cell lysate was transferred to a clean 96 well plate and 90 μL of KDalert mastermix was added to each well and the fluorescence was measured at excitation of 540 nm and emission of 570 nm.

[4] = biological target: T1, glyceraldehyde-3-phosphate dehydrogenase (GAPDH); assay: GAPDH activity, MDA-MB-231; assay type: cell-based; set-up: endogenous in cells; host or cells: MDA-MB-231, MDA-MB-468, MCF-7, MCF-10A; conditions: MDA-MB-231, 100 μM
Protocol: as §1

[5] = biological target: T1, glyceraldehyde-3-phosphate dehydrogenase (GAPDH); assay: GAPDH activity, MCF-10A; assay type: cell-based; set-up: endogenous in cells; conditions: MCF-10A cell line
Protocol: as §1

| SMILES | NO release [1] | [NO]pA ([1]; +Ferricyanide 1 mM) [pA] | [NO]pA ([1]; without ferricyanide) [pA] | Ulcer Index (stomach ulcers) [mg/kg] | UI (ulcer index) (stomach ulcers) | IC50 (MB-231 cells) [µM] | ROS level [2] | time point of activation of p53 phosphorylation (p53) [h] | GAPDH Activity ([3]; 1 h) [U/mL] | GAPDH Activity ([3]; 3 h) [U/mL] | GAPDH Activity ([3]; 6 h) [U/mL] | GAPDH Activity ([4]; 1 h) [U/mL] | GAPDH Activity ([4]; 3 h) [U/mL] | GAPDH Activity ([4]; 6 h) [U/mL] | GAPDH Activity [5] |
| --- | --- | --- | --- | --- | --- | --- | --- | --- | --- | --- | --- | --- | --- | --- | --- |
| CCN(CC)[N+]([O-])=NOCOC(=O)c1ccccc1OC(C)=O [DEA/NO-aspirin, O^2-(Acetylsalicyloyloxymethyl)-1-(N,N-Diethylamino)-diazen-1-ium-1,2-diolate] | readily released NO | 5000 | 4600 | 0 | 0 | 90 | much lower | 1 | 0.060 | 0.065 | 0.050 | 0.150 | 0.160 | 0.150 |  |
| CC(=O)Oc1ccccc1C(=O)OCON=[N+]([O-])NC(C)C [IPA/NO-aspirin, O^2-(Acetylsalicyloyloxymethyl)-1-(N-isopropylamino)-diazen-1-ium-1,2-diolate] | significantly lower NO production | 2100 | 1000 | 3.3 ± 3 | 3.0+3.0 | 95 | significant increase in ROS level | 10 | <0.010 | <0.010 | <0.010 | 0.120 | 0.070 | 0.050 | did not inhibit GAPDH activity |
